Source: patent US20040059104A1, “Nucleotide mimics and their prodrugs” (priority 2002, published 2004)

Legend:
in vitro = conditions: bovine, serum, Half-Life, Serum Half-Lives of NTPs and AZT Triphosphate Mimics
[1] = target: T1, HIV Reverse Transcriptase (Type B, 66 kDa subunit) (Human immunodeficiency virus type 1 group M subtype B, UniProt P04585); test: HIV Reverse Transcriptase inhibition assays (RNA-directed DNA polymerization, PicoGreen fluorescence); type: biochemical; conditions: Table 1; template (homopolymer or heteropolymer RNA) not stated; read-out: Ki, Inhibition of HIV Reverse Transcriptase by Nucleotide Mimics
T1 construct: purified HIV Reverse Transcriptase (Type B, 66 kDa subunit)
Procedure: The assays employed to measure inhibition of HIV Reverse Transcriptase (HIV RT) catalyzed/RNA-directed DNA polymerization are described below. The effectiveness of the compounds of the present invention as inhibitors of HIV RT-catalyzed DNA polymerization was measured in the following assays.
This assay was used to measure the ability of the nucleotide mimics of the present invention to inhibit the enzymatic synthesis of complementary strand DNA from a DNA-primed template of homopolymeric RNA. This assay is a modification of a published procedure (Seville, et al., “Fluorometric Assay for DNA Polymerases and Reverse Transcriptase”, BioTechniques 1996, 21, 664-72).
The compounds were tested at various concentrations up to 500 μM final concentration. DNA polymerase activity was measured in a reaction buffer containing primed-RNA template and dTTP diluted to appropriate concentrations in assay buffer. Nucleotide mimics of the present invention were diluted in buffer and pipetted into the wells of a 96-well plate. The reaction was initiated by addition of enzyme and allowed to proceed at 37° C. for 10 minutes. The reaction was quenched by addition of 5 μL 0.2 M EDTA, pH 8.0.
200 μL of diluted PicoGreen dsDNA Quantitation Reagent (Molecular Probes, Inc, Eugene, Oreg.) was added to each well of a 96-well plate and incubated at room temperature for 5 minutes. Plate wells were read on a microplate fluorometer (Molecular Devices Corp., Sunnyvale, Calif.). The wells were excited at 480 nm and the fluorescence emission intensity (RFU) was measured at 520 nm. The percentage of inhibition was calculated according to the following equation:
% Inhibition=[1−(RFU in test reaction−RFU in blank)/(RFU in control reaction−RFU in blank)]×100.
Each inhibitor was titrated over an appropriate range of concentrations, and inhibition constants were determined using the following equations:
v=Vm[S]/(Km(1+[I]/Ki)+[S])
Certain compounds of the present invention were also tested to determine their ability to inhibit HIV RT-catalyzed DNA polymerization on a heteropolymeric primed-RNA template in the presence of all four natural deoxynucleotide triphosphate (dNTP) substrates. This assay is a modification of a published procedure (Parker et al., “Mechanism of Inhibition of Human Immunodeficiency Virus Type 1 Reverse Transcriptase and Human DNA Polymerases α, β, and γ by the 5′-Triphosphates of Carbovir,3′-Azido-3′-deoxythymidine,2′-3′-Dideoxyguanosine, and 3′-Deoxythymidine”, J. Biol. Chem. 1991, 266 (3), 1754-62).
HIV RT DNA polymerase activity was measured in a reaction buffer containing primed-ribosomal RNA template and dNTPs diluted to appropriate concentrations in assay buffer and pipetted into 1.5 mL microcentrifuge tubes. Nucleotide mimics of the present invention were diluted in buffer and tested at various concentrations up to 5 μM final concentration. The reaction was initiated by addition of enzyme and allowed to proceed at 42° C. for 60 to 90 minutes. The reaction was quenched by addition of 12 μL 0.2 M EDTA, pH 8.0.
50 μL each of reaction was transferred to the well of a 96-well plate (in duplicate). 200 μL of diluted PicoGreen dsDNA Quantitation Reagent was added to each well of a 96-well plate and incubated at room temperature for 5 minutes. Plate wells were read on a microplate fluorometer. The wells were excited at 480 nm and the fluorescence emission intensity (RFU) was measured at 520 nm. The percentage of inhibition and inhibition constants […] were determined for representative compounds as described above.

## [BH3-][P+](O)(OCC1OC(n2cc(C)c(=O)[nH]c2=O)CC1N=[N+]=[N-])OP(=O)(O)C(F)(F)P(=O)(O)O (single isomer, unassigned) [Compound 27-isomer 1, 3′-Azido-3′-deoxythymidine 5′-α-P-borano-β,γ-(difluoromethylene)triphosphate]
In vitro
  half-life at 500 μM: > 48 h
[1]
  Ki: 8 nM
